Data on four compounds can be found in US20240269158A1, “THERAPEUTIC AGENTS AND METHODS FOR TREATMENT OF BARTONELLOSIS” (THE ADMINISTRATORS OF THE TULANE EDUCATIONAL FUND, priority 2021, published 2024).

≈ marks a conversion by molar mass, not a printed value. Where two headings read alike, the source gives them in different places.

Experiment [1] relates to B. vinsonii. The experiment can be described thus: MIC assay in liquid culture media (OD600). Particulars: Grace's insect media. The class given is cell-based, B. vinsonii subsp. berkhoffii. Here is the method:
(§1) The B. henselae strains used were San Antonio 2, 267HO04, a human clinical isolate and B. vinsonii subsp. berkhoffii. Both the bacteria were initially grown on tryptic soy agar (TSA) supplemented with 5% defibrinated sheep blood plates that were either pre-made (Remel, R01198) or homemade, in a humidified atmosphere at 37° C. with 5% CO2 for 7 days. For the preparation of liquid cultures, an individual well-grown colony from the plate was resuspended in 15 ml Falcon tubes containing 3 mL of either Schneider's insect media supplemented with 10% FBS, or Grace's insect media (Gibco, 11605-094) supplemented with 10% FBS, or BAPGM serum-free liquid media. The cultures grew for 7 more days in the atmosphere as above without shaking. The number of viable bacteria was determined by either plating serial dilutions of the culture on plates for CFU or by live/dead staining. Before every experiment, bacteria were mixed well and passed through 22-gauge needle to break large clumps of bacteria.
(§2) Optical density (OD) of 7-day old bacterial liquid culture that was grown from an individual colony was measured using a spectrophotometer (Bio-Rad, SmartSpec 300, 170-2501). Bacterial culture was then diluted down to an OD of 0.1 ? 3×10^8 cfu/ml with the respective media.
(§3) To determine the MIC of the antibiotics and for the visualization of the bacterial growth, a clear 96-well plate was used. Into each well of a 96-well plate, 50 μl of the 0.1 OD bacterial culture and 50 μl of the liquid media containing antibiotics were added to the wells bringing the total volume to 100 μl of 0.05 OD bacteria (CFU ? 1.5×10^7) in each well. Wells containing only bacteria with solvent used in the dilution of the antibiotics served as a positive control to verify the growth of bacteria. As a negative control, wells containing only media and solvents were used. Each concentration of diluted antibiotic was run in 4 replicates to minimize the error rate. The 96-well plate was covered with the lid and incubated at 37° C. with 5% CO2. OD of the culture was read after 48 hrs and 96 hrs using a hybrid multi-mode microplate reader (Biotek, Synergy H4 hybrid reader) at OD600. The assay was repeated three times.
(§4) Therapeutic agent stocks were prepared in the following solvents: 10 mg/ml of ceftriaxone (USP), doxycycline (Fisher scientific, D9891-1G), gentamicin (Fisher scientific, 1405-41-0), ampicillin (Fisher scientific, 69-52-3) and azlocillin (Flightpath) in sterile cell culture grade water, whereas 5 mg/ml of azithromycin (Sigma, PZ0007-5MG) was dissolved in sterile cell culture grade DMSO. Antibiotics were then aliquoted and stored at either −80° C. or −20° C. until further use. On the day of assay, these stock concentrations were diluted to 1 mg/ml and 100 μg/ml in the respected bacterial culture media for MIC and cell-free, liquid culture MBC assays. For the DH82 cell-based MBC assay, antibiotics were diluted in EMEM media supplemented with 15% heat inactivated FBS.
The determination of susceptibility to therapeutic agents was performed in liquid culture media. Six different therapeutic agents were tested with multiple different concentrations against B. henselae and B. vinsonii. Therapeutic agent concentrations tested were as follows: Ceftriaxone 0.001, 0.01, 0.1, 0.3, 0.5, 1, 2, and 5 μg/ml; doxycycline 0.001, 0.01, 0.1, 0.3, 0.5, 1, 2, 5, and 10 μg/ml, gentamicin: 0.01, 0.1, 0.3, 0.5, 1, 2, 4, 8, and 16 μg/ml, and azithromycin: 0.001, 0.005, 0.02, 0.1, 0.3, 0.5, 1, 2, 5, and 10 μg/ml, were tested based on previous antibiotic susceptibility studies. The following azlocillin dilutions were included: 0.001, 0.005, 0.01, 0.02, 0.5, 1, 2, and 5 μg/ml. The ampicillin dilutions included were as follows: 0.001, 0.005, 0.01, 0.02, 0.5, 1, 2, 4, and 8 μg/ml. Both the species of Bartonella were susceptible to all the antibiotics that were used in BAPGM and Grace's culture liquid mediums. […]

For experiment [2], the system named is B. vinsonii. The experiment can be described thus: Cell-free, liquid culture MBC assay. It is filed as cell-based, B. vinsonii subsp. berkhoffii. Particulars: 96 hrs, plated on blood agar. Here is the method: as §1
Briefly, the bacterial culture that was treated with therapeutic agents for 96 hrs was collected into a 1.5 ml microcentrifuge tubes and centrifuged at 7000 rpm for 10 min. The supernatant was removed, and the bacterial pellet was washed with 1×PBS twice. The bacterial pellet was then resuspended in 100 μL of 1×PBS, plated onto blood agar plates and incubated at 37° C. with 5% CO2 for about 14 days. This assay was repeated three times with all the 6 different antibiotics (azlocillin, azithromycin, ceftriaxone, doxycycline, gentamicin and ampicillin) and at different concentrations.
as §4
For this assay, both B. henselae and B. vinsonii were grown in Grace's insect media and were tested against all of the 6 antibiotics (ceftriaxone, doxycycline, gentamicin, azithromycin, azlocillin, ampicillin). […] However, ceftriaxone, gentamicin, azithromycin, and azlocillin were all bactericidal and completely eliminated the growth at concentrations below 10 µg/ml. Table 2 provides comparison of MBCs for B. henselae and B. vinsonii strains in cell-free liquid culture medium determined by incubating the bacteria with antibiotics in a 96-well plate and plating on tryptic soy agar supplemented with 5% sheep blood. Additionally, MBC for B. henselae determined by DH82 cell-based assay (right column) is provided.

For experiment [3], the system named is B. henselae and B. vinsonii. The experiment can be described thus: MIC assay, summary over both species. Particulars: BAPGM and Grace's liquid media. It is filed as cell-based, Bartonella. The protocol:
as §2, §3
The determination of susceptibility to therapeutic agents was performed in liquid culture media. Six different therapeutic agents were tested with multiple different concentrations against B. henselae and B. vinsonii. Therapeutic agent concentrations tested were as follows: Ceftriaxone 0.001, 0.01, 0.1, 0.3, 0.5, 1, 2, and 5 μg/ml; doxycycline 0.001, 0.01, 0.1, 0.3, 0.5, 1, 2, 5, and 10 μg/ml, gentamicin: 0.01, 0.1, 0.3, 0.5, 1, 2, 4, 8, and 16 μg/ml, and azithromycin: 0.001, 0.005, 0.02, 0.1, 0.3, 0.5, 1, 2, 5, and 10 μg/ml, were tested based on previous antibiotic susceptibility studies. The following azlocillin dilutions were included: 0.001, 0.005, 0.01, 0.02, 0.5, 1, 2, and 5 μg/ml. The ampicillin dilutions included were as follows: 0.001, 0.005, 0.01, 0.02, 0.5, 1, 2, 4, and 8 μg/ml. Both the species of Bartonella were susceptible to all the antibiotics that were used in BAPGM and Grace's culture liquid mediums. MICs ranged from 0.01 to 0.1 μg/ml for ceftriaxone, doxycycline, and ampicillin, 2.0-4.0 μg/ml for gentamicin, 0.1-0.5 μg/ml for azithromycin, and 0.001-0.01 μg/ml for azlocillin. […] However, both the bacteria were not susceptible towards any of the antibiotics when tested in Schneider's insect medium (Table 1).

A further experiment concerns B. henselae. Particulars: cited from earlier work.

The MIC is the lowest concentration that inhibits growth of the organism. A word on the MBC: it is the smallest concentration meeting the test's criterion for killing. Regarding `CO/N=C(\C(=O)N[C@@H]1C(=O)N2C(C(=O)O)=C(CSc3nc(=O)c(=O)[nH]n3C)CS[C@H]12)c1csc(N)n1` [Ceftriaxone, ceftriaxone], the MIC with B. vinsonii [1] (read-out: MIC) lay within 0 to 0.01 µg/mL. For the same compound, the MBC in the experiment with B. vinsonii [2] (read-out: MBC) was in the range of 0.5 to 1 µg/mL (≈ 0.902 to 1.8 µM).

Consider `CC1(C)S[C@@H]2[C@H](NC(=O)[C@H](NC(=O)N3CCNC3=O)c3ccccc3)C(=O)N2[C@H]1C(=O)O` [Azlocillin, azlocillin], for which the MIC in the experiment with B. vinsonii [1] (read-out: MIC) fell in the range of 0.001 to 0.005 µg/mL. Besides, in experiment [3], the MICs ranged lay within 0.001 to 0.01 µg/mL and the “susceptibility / inhibition of growth” value is on record as “most effective in inhibiting the growth of both the species of Bartonella”. Further, the MBC with B. vinsonii [2] (read-out: MBC) fell in the range of 0.25 to 0.5 µg/mL (≈ 0.542 to 1.08 µM).

On to `CC[C@H]1OC(=O)[C@H](C)[C@@H](O[C@H]2C[C@@](C)(OC)[C@@H](O)[C@H](C)O2)[C@H](C)[C@@H](O[C@@H]2O[C@H](C)C[C@H](N(C)C)[C@H]2O)[C@](C)(O)C[C@@H](C)CN(C)[C@H](C)[C@@H](O)[C@]1(C)O` [Azithromycin, azithromycin], for which the MIC in the experiment with B. vinsonii [1] (read-out: MIC) is 0.1 to 0.3 µg/mL. In addition, the MICs ranged in experiment [3] lay within 0.1 to 0.5 µg/mL. Moreover, the MBC in the experiment on B. vinsonii [2] (read-out: MBC) is 2 to 5 µg/mL (≈ 2.67 to 6.68 µM). Further, the “activity against growing bacterial culture” value with B. henselae (growing culture) was “effective”. The “activity against stationary phase B. henselae” value with B. henselae (stationary phase) is reported as “very poor activity”.

As to gentamicin, the MIC in the experiment on B. vinsonii [1] was 2.0 to 4.0 µg/mL. In experiment [3], the MICs ranged lay within 2.0 to 4.0 µg/mL. Moreover, the MBC against B. vinsonii [2] fell in the range of 4.0 to 8.0 µg/mL.
